Assay results published in ChEMBL document CHEMBL1152721, “A simple in vitro assay for assessing the reactivity of nitrile containing compounds” (Bioorg Med Chem Lett, 2009).

How the values were obtained:
[1] = Binding affinity to glutathione assessed as typical half life at 1.4 nM
[2] = Binding affinity to cysteine assessed as typical half life at 1.4 nM
[3] = Binding affinity to glutathione assessed as typical half life
[4] = Binding affinity to cysteine assessed as typical half life

| Structure (SMILES) | T1/2 [1] [h] | T1/2 [2] [h] | T1/2 [3] [h] | T1/2 [4] [h] |
| --- | --- | --- | --- | --- |
| CCCN1CCN(c2ccc(C(=O)NC3(C(=O)NCC#N)CCCCC3)cc2)CC1 | 97 | < 10 | – | – |
| COCCN1CCC(Cc2ccc(C(=O)NCc3cnc(C#N)nc3NCC(C)(C)C)cc2)CC1 | – | – | 7.3 | – |
| COC(=O)C1=C(C#N)NC(C)=C(C(=O)OC(C)C)C1c1cccc([N+](=O)[O-])c1 (stereo not given) | – | – | 40 | 2 |
